The target in assay [1] is T1, Alternative oxidase 1A (rAtAOX1A) (Arabidopsis thaliana, UniProt Q39219).
T1 construct: gene AOX1A; mature protein, N-terminal His6-tag, expressed in E. coli BL21(DE3)
T1 sequence (Q39219 63-354): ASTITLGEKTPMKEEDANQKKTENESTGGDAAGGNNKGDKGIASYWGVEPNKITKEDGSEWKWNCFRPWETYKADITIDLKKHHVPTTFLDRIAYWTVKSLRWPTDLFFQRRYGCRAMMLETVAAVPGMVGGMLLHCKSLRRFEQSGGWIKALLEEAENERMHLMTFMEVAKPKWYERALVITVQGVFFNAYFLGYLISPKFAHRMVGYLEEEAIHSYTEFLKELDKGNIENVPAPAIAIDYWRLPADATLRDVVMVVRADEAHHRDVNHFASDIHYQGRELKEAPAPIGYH
Kind of assay: oxygen uptake of purified enzyme with […] duroquinol (Clark-type electrode). The format is biochemical.

Assay [2] has as its target T1, Alternative oxidase 1A (rAtAOX1A). Kind of assay: SPR (Biacore, CM5 chip, […] Langmuir kinetic fit); also CD and inhibition of cell respiration. The format is binding.

Broadly, the Kd is the equilibrium constant for the complex coming apart.

With `Cc1c(C)c(O)c(C)c(C)c1O` [DQH2, duroquinol], the “oxygen uptake of purified enzyme with 600 μM duroquinol (Clark-type electrode)” value in assay [1] is 3.86 μmol O2 min^−1 mg^−1 protein. In assay [2], `O=C(NO)c1ccccc1O` [SHAM, salicylhydroxamic acid] came in with a Kd of 3.08 nM. On the same count and under the same terms, the result for `CCCOC(=O)c1cc(O)c(O)c(O)c1` [n-PG, n-propyl gallate] reads 0.491 nM.

These data come from PMC9243770, “Structural and Biophysical Characterization of Purified Recombinant Arabidopsis thaliana's Alternative Oxidase 1A (rAtAOX1A): Interaction With Inhibitor(s) and Activator” (Frontiers in Plant Science, 2022).
